Data published in patent US8088806B2 (Achillion Pharmaceuticals, Inc., priority 2005, dated 2012).
pEC50: −log10 of the molar value.

What follows are compounds tested on HCV replicon (assay: Replicon based assay of HCV replication inhibition (NPT ELISA)). Settings: Hepatitis C virus, Huh-7, 72 h, Table I; Huh-7 HCV replicon-containing cells, three days; read-out: Activity.
Assay type: cell-based, Hepatitis C virus
Method in brief: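 NPT (neomycin phosphotransferase) content, proportional to replicon replication, quantified by capture ELISA on day four. Before that, replicon-bearing Huh-7 cells in G418-free screening medium were exposed three days at 37° C to compound, typically six doses from 10 to 0.03 micromolar, with equal DMSO across wells.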

SMILES | pEC50
CCCCCOc1ccc(Nc2nc(-c3ccc(C#N)cc3)cs2)cc1C(F)(F)F [compound 132, 4-(2-(3-(trifluoromethyl)-4-(pentyloxy)phenylamino)thiazol-4-yl)benzonitrile] | > 6.00
CCCCCOc1ccc(Nc2nc(-c3ccc(N4CCCC4)cc3)cs2)cc1C(F)(F)F [compound 8, N-(3-(trifluoromethyl)-4-(pentyloxy)phenyl)-4-(4-(pyrrolidin-1-yl)phenyl)thiazol-2-amine] | > 6.00
CCCCCOc1ccc(N(C)c2nc(C(=O)O)cs2)cc1C(F)(F)F [compound 158, 2-(N-(3-(trifluoromethyl)-4-(pentyloxy)phenyl)-N-methylamino)thiazole-4-carboxylic acid] | < 5.00
c1ccc(COc2cccc(Nc3nc(-c4cccnc4)cs3)c2)cc1 [compound 87, N-(3-(benzyloxy)phenyl)-4-(pyridin-3-yl)thiazol-2-amine] | > 6.00
CN(C(=O)c1csc(-c2cccnc2)n1)c1ccc(Cl)c(Cl)c1 [compound 126, N-(3,4-dichlorophenyl)-N-methyl-2-(pyridin-3-yl)thiazole-4-carboxamide] | < 5.00
CCCCCOc1ccc(Nc2nc(N)cs2)cc1C(F)(F)F [compound 208, N2-(3-(trifluoromethyl)-4-(pentyloxy)phenyl)thiazole-2,4-diamine] | 5.00 to 6.00
Fc1ccc(-c2csc(Nc3ccc(OC(F)(F)F)cc3)n2)cc1 [compound 43, 4-(4-fluorophenyl)-N-(4-(trifluoromethoxy)phenyl)thiazol-2-amine] | < 5.00
CCCCCOc1ccc(Nc2nc(CN(C)CC(N)=O)cs2)cc1C(F)(F)F [compound 218, 2-(N-((2-(3-(trifluoromethyl)-4-(pentyloxy)phenylamino)thiazol-4-yl)methyl)-N-methylamino)acetamide] | > 6.00
CCOC(=O)Cc1csc(Nc2nc(-c3ccc(Cl)cc3)cs2)n1 [compound 147, ethyl 2-(2-(4-(4-chlorophenyl)thiazol-2-ylamino)thiazol-4-yl)acetate] | < 5.00
CCCCCc1ccc(Nc2nc(-c3ccc(CC(=O)O)cc3)c(C)s2)cc1 [compound 182, 2-(4-(2-(4-pentylphenylamino)-5-methylthiazol-4-yl)phenyl)acetic acid] | > 6.00
CCCCCOc1ccc(Nc2nc(-c3cc(-c4ccc(Cl)c(Cl)c4)no3)cs2)cc1F [compound 175, 4-(3-(3,4-dichlorophenyl)isoxazol-5-yl)-N-(3-fluoro-4-(pentyloxy)phenyl)thiazol-2-amine] | < 5.00

Same assay, conditions: Hepatitis C virus, Huh-7, 72 h, Table III; Huh-7 HCV replicon-containing cells, three days; read-out: Activity

SMILES | pEC50
CCCCCN(C)c1ccc(Nc2nc(Cc3ccc(F)c(F)c3)cs2)cc1C(F)(F)F [compound 611, N^4-(4-(3,4-difluorobenzyl)thiazol-2-yl)-2-(trifluoromethyl)-N^1-methyl-N^1-pentylbenzene-1,4-diamine] | < 5.00
CCCCCCCOc1ccc(Nc2nc(-c3ccc(NC)nc3)cs2)cc1 [compound 523, 5-(2-(4-(heptyloxy)phenylamino)thiazol-4-yl)-N-methylpyridin-2-amine] | > 6.00
CCCCCCCCOc1ccc(Nc2nc(-c3cnc4ccc(C#N)cn34)cs2)cc1C(F)(F)F [compound 674, 3-(2-(3-(trifluoromethyl)-4-(octyloxy)phenylamino)thiazol-4-yl)H-imidazo[1,2-a]pyridine-6-carbonitrile] | > 6.00
CCCCCCCCOc1ccc(Nc2nc(Cc3ccc(F)c(F)c3)cs2)cc1 [compound 608, 4-(3,4-difluorobenzyl)-N-(4-(octyloxy)phenyl)thiazol-2-amine] | < 5.00
CCCCCCCCc1ccc(Nc2nc(-c3ccc(OCC(=O)O)cc3)c(C)s2)cc1 [compound 550, 2-(4-(2-(4-octylphenylamino)-5-methylthiazol-4-yl)phenoxy)acetic acid] | > 6.00
CCCCCCCCN(C)c1ccc(Nc2nc(-c3ccc(F)cc3)cs2)cc1C(F)(F)F [compound 568, 2-(trifluoromethyl)-N^4-(4-(4-fluorophenyl)thiazol-2-yl)-N^1-methyl-N^1-octylbenzene-1,4-diamine] | > 6.00

Same assay, conditions: Hepatitis C virus, replicon based assay of HCV replication inhibition; Table II; read-out: Activity

SMILES | pEC50
CCCCCOc1ccc(Nc2nc(Cc3cccc(F)c3)cs2)cc1C(F)(F)F [compound 517, 4-(3-fluorobenzyl)-N-(3-(trifluoromethyl)-4-(pentyloxy)phenyl)thiazol-2-amine] | 5.00 to 6.00
CCCCCOc1ccc(Nc2nc(CN3CCC[C@@H]3C(=O)O)cs2)cc1C(F)(F)F [compound 278, (R)-1-((2-(4-(pentyloxy)-3-(trifluoromethyl)phenyl-amino)thiazol-4-yl)methyl)pyrrolidine-2-carboxylic acid] | > 6.00
CCCCCCCCOc1ccc(Nc2nc(-c3nc4ccccc4s3)cs2)cc1 [compound 388, 4-(benzo[d]thiazol-2-yl)-N-(4-(octyloxy)phenyl)thiazol-2-amine] | > 6.00
CCCCCOc1ccc(Nc2nc(-c3ccc(Br)nc3)cs2)cc1C(F)(F)F [compound 459, 4-(6-bromopyridin-3-yl)-N-(3-(trifluoromethyl)-4-(pentyloxy)phenyl)thiazol-2-amine] | > 6.00
COc1ccc(-c2nc(Nc3ccc(F)cc3)sc2-c2ccc(OC)cc2)cc1 [compound 356, N-(4-fluorophenyl)-4,5-bis(4-methoxyphenyl)thiazol-2-amine] | 5.00 to 6.00
CCCCCCCCOc1ccc(Nc2nc(CN3CCCC(C(=O)O)C3)cs2)cc1 (stereo not drawn) [compound 323, 1-((2-(4-(octyloxy)phenylamino)thia-zol-4-yl)methyl)piperidine-3-carboxylic acid] | 5.00 to 6.00
CCCCCOc1ccc(Nc2nc(CNc3ccc(Cl)c(Cl)c3)cs2)cc1C(F)(F)F [compound 261] | 5.00 to 6.00
CCCCCOc1ccc(Nc2nc(CN3CCN(CCN(C)C)CC3)cs2)cc1F [compound 283, 4-((4-(2-(dimeethylamino)ethyl)piper-azin-1-yl)methyl)-N-(3-fluoro-4-(pentyloxy)phenyl)thiazol-2-amine] | 5.00 to 6.00
CCCCCCCCOc1ccc(Nc2nc(Cc3cccc(F)c3)cs2)cn1 [compound 498, N-(4-(3-fluorobenzyl)thiazol-2-yl)-6-(octyloxy)pyridin-3-amine] | 5.00 to 6.00
Fc1ccc(-c2csc(Nc3ccc(OCC4CC4)c(C(F)(F)F)c3)n2)cc1 [compound 243, N-(4-(cyclopropylmethoxy)-3-(trifluoromethyl)phenyl)-4-(4-fluorophenyl)thiazol-2-amine] | > 6.00

Same assay, conditions: Hepatitis C virus, replicon based assay of HCV replication inhibition; Table IV; read-out: Activity

SMILES | pEC50
CCCCCCCCOc1ccc(Nc2nc(-c3cnc[nH]3)cs2)cc1C(F)(F)F [compound 811, N-(3-(trifluoromethyl)-4-(octyloxy)phenyl)-4-(1H-imidazol-5-yl)thiazol-2-amine] | > 6.00
CN(C)c1ccc(-c2csc(Nc3ccc(OC4CCCC4)c(C(F)(F)F)c3)n2)cn1 [compound 735, 5-(2-(4-(cyclopentyloxy)-3-(trifluoromethyl)phenylamino)thiazol-4-yl)-N,N-dimethylpyridin-2-amine] | 5.00 to 6.00
c1cc(Nc2nc(-c3cccnc3)cs2)cc(-c2cocn2)c1 [compound 749, N-(3-(oxazol-4-yl)phenyl)-4-(pyridin-3-yl)thiazol-2-amine] | < 5.00
CCN(CC)CCOC(=O)c1ccc(Nc2nc(-c3cccnc3)cs2)cc1 [compound 758, 2-(diethylamino)ethyl 4-(4-(pyridin-3-yl)thiazol-2-ylamino)benzoate] | < 5.00
Cc1ccc(-c2ccccc2)cc1Nc1nc(-c2cccnc2)cs1 [compound 905] | < 5.00
CCCCCCCCOc1ccc(Nc2nc(C3=CSC4=NCCCN34)cs2)cc1C(F)(F)F [compound 786, N-(3-(trifluoromethyl)-4-(octyloxy)phenyl)-4-(6,7-dihydro-5H-thiazolo[3,2-a]pyrimidin-3-yl)thiazol-2-amine] | > 6.00
CCCCCCCCOc1ccc(Nc2nc(C3=CSC4=NC(=O)CN34)cs2)cc1C(F)(F)F [compound 801, 3-(2-(3-(trifluoromethyl)-4-(octyloxy)phenylamino)thiazol-4-yl)imidazo[2,1-b]thiazol-6(SH)-one] | > 6.00
COc1ccc2cc(-c3csc(Nc4ccc(OCC5CCCCC5)c(C(F)(F)F)c4)n3)ccc2c1 [compound 773, N-(4-(cyclohexylmethoxy)-3-(trifluoromethyl)phenyl)-4-(2-methoxynaphthalen-6-yl)thiazol-2-amine] | > 6.00
CCn1c(C)nc2cc(Nc3nc(-c4cccnc4)cs3)ccc21 [compound 750, 1-ethyl-2-methyl-N-(4-(pyridin-3-yl)thiazol-2-yl)-1H-benzo[d]imidazol-5-amine] | < 5.00
CCCCCCCCOc1ccc(Nc2nc(C(=O)CSc3ncc[nH]3)cs2)cc1C(F)(F)F [compound 785, 2-(1H-imidazol-2-ylthio)-1-(2-(3-(trifluoromethyl)-4-(octyloxy)phenylamino)thiazol-4-yl)ethanone] | 5.00 to 6.00
O=C(O)c1ccc(Oc2ccc(Nc3nc(-c4cccnc4)cs3)cc2)cc1 [compound 904, 4-(4-(4-(pyridin-3-yl)thiazol-2-ylamino)phenoxy)benzoic acid] | > 6.00
c1cncc(-c2csc(Nc3ccc4nccnc4c3)n2)c1 [compound 761, N-(4-(pyridin-3-yl)thiazol-2-yl)quinoxalin-6-amine] | < 5.00
Cc1sc(Nc2ccc(OCCCCc3cccs3)c(F)c2)nc1-c1cccnc1 [compound 854, N-(4-(4-(thiophen-2-yl)butoxy)-3-fluorophenyl)-5-methyl-4-(pyridin-3-yl)thiazol-2-amine] | 5.00 to 6.00
CN(C)C(=O)c1ccc(Nc2nc(-c3cccnc3)cs2)cc1 [compound 821, 4-(4-(pyridin-3-yl)thiazol-2-ylamino)-N,N-dimethylbenzamide] | < 5.00
c1ccc(-c2cc(Nc3nc(-c4cccnc4)cs3)[nH]n2)cc1 [compound 754, 3-phenyl-N-(4-(pyridin-3-yl)thiazol-2-yl)-1H-pyrazol-5-amine] | < 5.00
